The text below walks through data of US9266835B2, “Quinoline derivatives useful as CB-1 inverse agonists” (JANSSEN PHARMACEUTICA NV, priority 2014, dated 2016).

One may read the EC50 as the concentration needed to bring the measured effect to its halfway point.

The target in experiment [1] is Human CB2R (Cannabinoid receptor 2) (Homo sapiens (Human), UniProt P34972). Description: CB-2 in vitro cAMP assay (HTRF), inverse agonism. The class given is cell-based. Conditions: mean where tested more than once.
Experiment [2] deals with Human CB1R (Cannabinoid receptor 1) (Homo sapiens (Human), UniProt P21554). Put plainly: CB-1 in vitro cAMP assay (HTRF), inverse agonism. The class given is cell-based. Particulars: mean where tested more than once. In general terms: Cyclic AMP is a second messenger, typically raised through Gs and lowered through Gi signalling.

Counter-ions that a name gives are not always drawn.

Sequence of Human CB2R (Cannabinoid receptor 2) (P34972 whole entry): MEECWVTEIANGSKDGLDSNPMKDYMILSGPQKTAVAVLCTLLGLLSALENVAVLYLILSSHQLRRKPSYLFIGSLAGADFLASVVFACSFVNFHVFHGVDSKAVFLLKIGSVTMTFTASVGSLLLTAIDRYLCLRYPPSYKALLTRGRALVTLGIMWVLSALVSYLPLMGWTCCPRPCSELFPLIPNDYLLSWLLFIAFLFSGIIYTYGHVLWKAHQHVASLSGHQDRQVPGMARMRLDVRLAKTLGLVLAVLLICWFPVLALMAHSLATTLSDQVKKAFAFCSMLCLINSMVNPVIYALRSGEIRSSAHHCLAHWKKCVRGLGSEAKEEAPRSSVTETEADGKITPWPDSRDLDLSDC
Sequence of Human CB1R (Cannabinoid receptor 1) (P21554 whole entry): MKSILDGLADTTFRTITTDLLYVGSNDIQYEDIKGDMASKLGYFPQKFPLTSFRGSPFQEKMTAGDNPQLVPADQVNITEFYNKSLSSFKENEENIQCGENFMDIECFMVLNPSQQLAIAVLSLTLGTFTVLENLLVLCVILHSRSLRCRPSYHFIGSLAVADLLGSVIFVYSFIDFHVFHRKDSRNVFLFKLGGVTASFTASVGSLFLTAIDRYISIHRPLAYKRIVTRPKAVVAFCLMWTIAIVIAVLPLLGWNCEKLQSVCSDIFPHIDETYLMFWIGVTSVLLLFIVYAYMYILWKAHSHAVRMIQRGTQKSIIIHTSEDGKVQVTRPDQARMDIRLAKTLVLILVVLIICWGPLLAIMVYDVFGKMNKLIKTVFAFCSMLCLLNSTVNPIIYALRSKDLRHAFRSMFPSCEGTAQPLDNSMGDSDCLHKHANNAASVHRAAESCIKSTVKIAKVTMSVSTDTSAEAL

Take `O=c1cc(Nc2ccc(Cl)c(F)c2)c2cc(C(c3ccc(Cl)cc3)c3ccc(Cl)cc3)ccc2[nH]1` [Compound 83, 6-[Bis(4-chlorophenyl)methyl]-4-[(4-chloro-3-fluorophenyl)amino]quinolin-2(1H)-one]: the EC50 in experiment [1] is > 10000 nM; in experiment [2], 11 nM.
`CCOC(=O)CC(=O)N1CCC(Nc2cc(=O)[nH]c3ccc(C(c4ccc(Cl)cc4)c4ccc(Cl)cc4)cc23)CC1` [Compound 95, Ethyl 3-[4-({6-[bis(4-chlorophenyl)methyl]-2-oxo-1,2-dihydroquinolin-4-yl}amino)piperidin-1-yl]-3-oxopropanoate]: the EC50 was 3650 nM in experiment [1] and 13 nM in experiment [2].
Take `Cn1c(=O)cc(NC2CCN(S(=O)(=O)C(F)(F)F)CC2)c2cc(C(c3ccc(Cl)cc3)c3ccc(Cl)cc3)ccc21` [Compound #49, 6-[bis(4-chlorophenyl)methyl]-1-methyl-4-[[1-(trifluoromethane)sulfonylpiperidin-4-yl]amino]-1,2-dihydroquinolin-2-one]: the results for the EC50 in experiment [1] and in experiment [2] were > 10000 nM and 24 nM, respectively.
As to `O=c1cc(NC2CCN(S(=O)(=O)C(F)(F)F)CC2)c2cc(C(c3ccc(Cl)cc3)c3ccc4c(c3)OCO4)ccc2[nH]1` (stereo not drawn) [Compound 55, 6[1,3-Benzodioxo1-5-yl(4-chlorophenyl)methyl]-4-({1-[(trifluoromethyl)sulfonyl]-piperidin-4-yl}amino)quinolin-2(1H)-one], the EC50 came out at 840 nM in experiment [1] and 10 nM in experiment [2].
Regarding `COCCn1c(=O)cc(NC2CCN(S(=O)(=O)C(F)(F)F)CC2)c2cc(C(c3ccc(Cl)cc3)c3ccc(Cl)cc3)ccc21` [Compound 110, 6-(bis(4-chlorophenyl)methyl)-1-(2-methoxyethyl)-4-((1-((trifluoromethyl)sulfonyl)piperidin-4-yl)amino)quinolin-2(1H)-one], the EC50 in experiment [1] is > 10000 nM; in experiment [2], 228 nM.
Consider `CS(=O)(=O)N1CCC(Nc2cc(=O)[nH]c3ccc(C(c4ccc(Cl)cc4)c4ccc(Cl)cc4)cc23)CC1` [Compound 63, 6-[Bis(4-chlorophenyl)methyl]-4-{[1-(methylsulfonyl)piperidin-4-yl]amino}quinolin-2(1H)-one], for which the EC50 in experiment [1] was 2660 nM; in experiment [2], 94 nM.
For `O=S(=O)(N1CCC(Nc2ccnc3c(O)cc(C(c4ccc(Cl)cc4)c4ccc(Cl)cc4)cc23)CC1)C(F)(F)F` [Compound 541, 6-(bis(4-chlorophenyl)methyl)-4-((1-((trifluoromethyl)sulfonyl)piperidin-4-yl)amino)quinolin-8-ol] the same measures were > 10000 nM and 339 nM.
For `CC(C)S(=O)(=O)N1CCC(Nc2cc(=O)[nH]c3ccc(C(c4ccc(Cl)cc4)c4nccs4)cc23)CC1` (stereo not drawn) [Compound 40, 6-[(4-Chlorophenyl)(1,3-thiazol-2-yl)methyl]-4-({1-[(1-methylethyl)sulfonyl]piperidin-4-yl}amino)quinolin-2(1H)-one], the values for the EC50 in experiment [1] and in experiment [2] were > 10000 nM and 204 nM, respectively.
For `O=C(O)CCC(=O)N1CCC(Nc2cc(=O)[nH]c3ccc(C(c4ccc(Cl)cc4)c4ccc(Cl)cc4)cc23)CC1` [Compound 98, 4-(4-((6-(bis(4-chlorophenyl)methyl)-2-oxo-1,2-dihydroquinolin-4-yl)amino)piperidin-1-yl)-4-oxobutanoic acid] the same measures were > 10000 nM and 242 nM.
For the compound `O=c1cc(/C=C/c2ccccc2)c2cc(C(c3ccc(Cl)cc3)c3ccc(Cl)cc3)ccc2[nH]1` [Compound 502], the EC50 in experiment [1] was > 10000 nM; in experiment [2] it was 580 nM.
Take `CC(C)(C)Oc1cc(/C=C/c2cccc(F)c2)c2cc(C(O)(c3ccc(Cl)cc3)c3ccsc3)ccc2n1` (stereo not drawn) [Compound 518, (E)-(2-(tert-butoxy)-4-(3-fluorostyryl)quinolin-6-yl)(4-chlorophenyl)(thiophen-3-yl)methanol]: the EC50 in experiment [1] was 540 nM; in experiment [2], > 10000 nM.
In the case of `CC(C)(C)OC(=O)N1CC=C(c2ccnc3ccc(C(c4ccc(Cl)cc4)c4nccs4)cc23)CC1` (stereo not drawn) [Compound 513, tert-butyl 4-(6-((4-chlorophenyl)(thiazol-2-yl)methyl)quinolin-4-yl)-5,6-dihydropyridine-1(2H)-carboxylate], the results for the EC50 in experiment [1] and in experiment [2] were > 10000 nM and 1500 nM, respectively.
As to `CC(C)(C)OC(=O)CCN1CCC(Nc2cc(=O)[nH]c3ccc(C(c4ccc(Cl)cc4)c4ccc(Cl)cc4)cc23)CC1` [Compound 114, tert-butyl 3-(4-((6-(bis(4-chlorophenyl)methyl)-2-oxo-1,2-dihydroquinolin-4-yl)amino)piperidin-1-yl)propanoate], the values for the EC50 in experiment [1] and in experiment [2] were > 10000 nM and 103 nM, respectively.
As to `O=c1cc(Nc2cccc(C(F)(F)F)c2)c2cc(C(c3ccc(Cl)cc3)c3ccc(Cl)cc3)ccc2[nH]1` [Compound 75, 6-[Bis(4-chlorophenyl)methyl]-4-{[3-(trifluoromethyl)phenyl]amino}-quinolin-2(1H)-one], the EC50 in experiment [1] was > 10000 nM; in experiment [2], 25 nM.
As for `O=c1cc(NC2CCN(S(=O)(=O)C(F)(F)F)CC2)c2cc(C(O)(c3ccc(Cl)cc3)c3ccc(Cl)cc3)ccc2[nH]1` [Compound 73, 6-[Bis(4-chlorophenyl)(hydroxy)methyl]-4-({1-[(trifluoromethyl)sulfonyl]-piperidin-4-yl}amino)quinolin-(1H)-one], the EC50 is 5400 nM in experiment [1] and 52 nM in experiment [2].
For the compound `FC(F)(F)c1ccc(/C=C/c2ccnc3ccc(C(c4ccc(Cl)cc4)c4ccc(Cl)cc4)cc23)cc1` [Compound 521, 6-[Bis(4-chlorophenyl)methyl]-4-{(E)-2-[4-(trifluoromethyl)phenyl]-ethenyl}quinoline], the values for the EC50 in experiment [1] and in experiment [2] were > 10000 nM and 213 nM, respectively.
As for `CCOC(=O)CS(=O)(=O)N1CCC(Nc2cc(=O)[nH]c3ccc(C(c4ccc(Cl)cc4)c4ccc(Cl)cc4)cc23)CC1` [Compound 102, ethyl 2-((4-((6-(bis(4-chlorophenyl)methyl)-2-oxo-1,2-dihydroquinolin-4-yl)amino)piperidin-1-yl)sulfonyl)acetate], the EC50 in experiment [1] was > 10000 nM; in experiment [2], 17 nM.
For `CC(C)(C)OC(=O)N1CC[C@H](Nc2cc(=O)[nH]c3ccc(C(c4ccc(Cl)cc4)c4nccs4)cc23)C1` (stereo partly drawn) [Compound 45, tert-Butyl (3S)-3-({6-[(4-chlorophenyl)(1,3-thiazol-2-yl)methyl]-2-oxo-1,2-dihydroquinolin-4-yl}amino)pyrrolidine-1-carboxylate] the same measures were > 10000 nM and 1170 nM.
For `O=C(O)CCN1CCC(Nc2cc(=O)[nH]c3ccc(C(c4ccc(Cl)cc4)c4ccc(Cl)cc4)cc23)CC1` [Compound 115, 3-[4-({6-[Bis(4-chlorophenyl)methyl]-2-oxo-1,2-dihydroquinolin-4-yl}amino)piperidin-1-yl]propanoic acid] the same measures were > 10000 nM and > 10000 nM.
For `COc1ccc(C(c2ccc(Cl)cc2)c2ccc3[nH]c(=O)cc(NC4CCN(S(=O)(=O)C(F)(F)F)CC4)c3c2)cc1` (stereo not drawn) [Compound #54, 6-((4-chlorophenyl)(4-methoxyphenyl)methyl)-4-((1-((trifluoromethyl)sulfonyl)piperidin-4-yl)amino)quinolin-2(1H)-one] the same measures were 1830 nM and 8 nM.
Regarding `O=c1cc(NC2CCN(CC(F)(F)F)CC2)c2cc(C(c3ccc(Cl)cc3)c3ccc(Cl)cc3)ccc2[nH]1` [Compound #77, 6-(bis(4-chlorophenyl)methyl)-4-((1-(2,2,2-trifluoroethyl)piperidin-4-yl)amino)quinolin-2(1H)-one], the EC50 in experiment [1] is > 10000 nM; in experiment [2] it was 3 nM.
For the compound `O=c1cc(/C=C/c2ccc(C(F)(F)F)cc2)c2cc(C(c3ccc(Cl)cc3)c3ccc(Cl)s3)ccc2[nH]1` (stereo not drawn) [Compound 29, 6-[(4-Chlorophenyl)(5-chlorothiophen-2-yl)methyl]-4-{(E)-2-[4-(trifluoromethyl)phenyl]-ethenyl}quinolin-2(1H)-one], the EC50 in experiment [1] is > 10000 nM; in experiment [2], 759 nM.
As to `O=S(=O)(N1CCC(Nc2ccnc3c(Br)cc(C(c4ccc(Cl)cc4)c4ccc(Cl)cc4)cc23)CC1)C(F)(F)F` [Compound 524, 6-(bis(4-chlorophenyl)methyl)-8-bromo-N-(1-((trifluoromethyl)sulfonyl)piperidin-4-yl)quinolin-4-amine], the EC50 in experiment [1] was found to be 180 nM; in experiment [2] it was 12 nM.
Take `O=C(O)c1ccc(S(=O)(=O)N2CCC(Nc3cc(=O)[nH]c4ccc(C(c5ccc(Cl)cc5)c5ccc(Cl)cc5)cc34)CC2)s1` [Compound 130, 5-[4-([6-[bis(4-chlorophenyl)methyl]-2-hydroxyquinolin-4-yl]amino)piperidine-1-sulfonyl]thiophene-2-carboxylic acid, trifluoroacetic acid salt]: the EC50 was found to be 690 nM in experiment [1] and 113 nM in experiment [2].
Consider `O=c1cc(NC2CCN(S(=O)(=O)C(F)(F)F)CC2)c2cc(C(c3ccc(Cl)cc3)c3ccc(Cl)c(Cl)c3)ccc2[nH]1` (stereo not drawn) [Compound #53, 6-[(4-chlorophenyl)(3,4-dichlorophenyl)methyl]-4-[[1-(trifluoromethane)sulfonylpiperidin-4-yl]amino]-1,2-dihydroquinolin-2-one], for which the figures for the EC50 in experiment [1] and in experiment [2] were > 14000 nM and 20 nM, respectively.
For `CC(C)(C)OC(=O)NCCCCOc1cc(C(c2ccc(Cl)cc2)c2ccc(Cl)cc2)cc2c(NC3CCN(S(=O)(=O)C(F)(F)F)CC3)ccnc12` [Compound 539, tert-butyl (4-((6-(bis(4-chlorophenyl)methyl)-4-((1-((trifluoromethyl)sulfonyl)piperidin-4-yl)amino)quinolin-8-yl)oxy)butyl)carbamate] the same measures were > 21000 nM and 96 nM.
For `O=C(O)CCCOc1ccc(Nc2cc(=O)[nH]c3ccc(C(c4ccc(Cl)cc4)c4ccc(Cl)cc4)cc23)cc1` [Compound 121, 4-[4-({6-[Bis(4-chlorophenyl)methyl]-2-oxo-1,2-dihydroquinolin-4-yl}amino)phenoxy]butanoic acid] the same measures were > 10000 nM and 1010 nM.
